We go through 18 compounds from PMC10788917 (Journal of Medicinal Chemistry, 2023).

pIC50, pKi: −log10 of the molar value.

The first data set deals with T1, HDAC8 (Homo sapiens, UniProt Q9BY41).
T1 construct: one additional N-terminal residue 'H' (His) (N)
T1 sequence (Q9BY41 1-377): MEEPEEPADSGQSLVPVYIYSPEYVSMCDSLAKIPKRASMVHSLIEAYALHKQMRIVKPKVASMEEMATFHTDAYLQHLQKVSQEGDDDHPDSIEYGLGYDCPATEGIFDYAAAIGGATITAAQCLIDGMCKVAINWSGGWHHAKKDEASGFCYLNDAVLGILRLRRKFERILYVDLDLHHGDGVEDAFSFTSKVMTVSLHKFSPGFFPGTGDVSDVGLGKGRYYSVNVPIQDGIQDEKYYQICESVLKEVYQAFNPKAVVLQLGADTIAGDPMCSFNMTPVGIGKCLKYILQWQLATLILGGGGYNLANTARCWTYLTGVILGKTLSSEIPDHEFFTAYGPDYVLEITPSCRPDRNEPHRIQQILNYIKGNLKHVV
Description: Kinetic parameters of inactivation from time-dependent IC50. Type of data set: biochemical. To be noted: HDAC8, inactivation constant. As for the experimental part:
Time-dependent IC50 values were obtained using the previously described enzyme activity assay after varying preincubation times.
In general, pKi refers to −log10 of the Ki, conventionally taken in molar units. A lower pKi goes with a large Ki. In turn, `C#Cc1ccc[n+](C)c1` [B6+] showed a pKi of 6.10.

Another data set has as its target HDAC8 WT (Homo sapiens, UniProt Q9BY41). Description: Dilution/dialysis reversibility experiment. Type of data set: biochemical. Conditions: 2000-fold dilution by overnight dialysis.
As for `C#Cc1ccc[n+](C)c1` [B6+], the “reversibility of covalent binding” value is recorded as “irreversible”.

The test system of another data set is THP-1 cells. In words: CellTiter-Blue cell viability assay. The class given is cell-based. To be noted: Homo sapiens, 72 h, Figure 7A, read-out: cell viability IC50, THP-1. As for the experimental part:
All cell lines were purchased from DSMZ (Braunschweig, Germany). The cell lines were regularly tested to exclude mycoplasma contamination and authenticated. […] Media were supplemented with 10% fetal calf serum (FCS), 10 units/mL penicillin, 10 μg/mL streptomycin, and 2 mM L-glutamine (all Gibco, Thermo Fisher Scientific).
To determine the IC50 of the selected compounds on the cell lines, the CellTiter-Blue cell viability assay (Promega) was performed. For this, cells were seeded in 96-well flat-bottom plates at a cell density of 10 000 cells/well. Cells were treated in triplicate with the compound of interest at various concentrations or with 10 μM Bortezomib (S1013; Selleck Chemicals, Houston, TX), as a positive control. […] Plates were measured using a GloMax plate reader (Promega), and IC50 values were determined by nonlinear regression using GraphPad Prism version 9.1.1 (GraphPad Software, Inc.), and the data are reported as mean values ± the standard error of the mean.
A general note: Resazurin is reduced to fluorescent resorufin, in cell work by metabolically active cells.
For orientation: pIC50 means the IC50 on a negative log10 scale, so that one unit is a factor of ten. With `C#Cc1cnccc1NC(=O)CC(=O)N1Cc2ccccc2C1` [compound 11, N-(3-Ethynylpyridin-4-yl)-3-(isoindolin-2-yl)-3-oxopropanamide], the pIC50 is < 3.30.

In the next data set the test system is HL60 cells. Description: CellTiter-Blue cell viability assay. Type of data set: cell-based. Conditions: Homo sapiens, HL-60; 72 h, Figure 7A. How it is done:
All cell lines were purchased from DSMZ (Braunschweig, Germany). The cell lines were regularly tested to exclude mycoplasma contamination and authenticated. Cell lines were grown at 37 °C and 5% CO2 in RPMI 1640 medium (Gibco, Thermo Fisher Scientific). Media were supplemented with 10% fetal calf serum (FCS), 10 units/mL penicillin, 10 μg/mL streptomycin, and 2 mM L-glutamine (all Gibco, Thermo Fisher Scientific).
To determine the IC50 of the selected compounds on the cell lines, the CellTiter-Blue cell viability assay (Promega) was performed. For this, cells were seeded in 96-well flat-bottom plates at a cell density of 10 000 cells/well. Cells were treated in triplicate with the compound of interest at various concentrations or with 10 μM Bortezomib (S1013; Selleck Chemicals, Houston, TX), as a positive control. The cell viability of treated cell lines was measured using CellTiter-Blue after incubation for 72 h. Plates were measured using a GloMax plate reader (Promega), and IC50 values were determined by nonlinear regression using GraphPad Prism version 9.1.1 (GraphPad Software, Inc.), and the data are reported as mean values ± the standard error of the mean.
`C#Cc1cnccc1NC(=O)CC(=O)N1Cc2ccccc2C1` [compound 11, N-(3-Ethynylpyridin-4-yl)-3-(isoindolin-2-yl)-3-oxopropanamide]: the pIC50 is < 3.30.

The next data set deals with SMC3 acetylation. Description: Western blot (immunoblot) in OCI-AML3 cells. To be noted: 72 h treatment. Type of data set: cell-based. How it is done:
Cells (2 ×10^6) were seeded in 2 mL of medium in a six-well plate (Greiner) and treated with the desired concentration of the compounds. […] Protein concentrations were determined by the Bradford protein assay. Thirty micrograms of cell lysates per treatment was fractionated on sodium dodecyl sulfate–polyacrylamide gels and transferred to nitrocellulose membranes (Cytiva).
(In general: Immunoblotting shows a protein as a band on a membrane.)
In the case of `C#Cc1ccc[n+](C)c1` [B6+], the “effect on HDAC8 levels” value is “not influencing HDAC8 levels”.

The next data set relates to GSH (glutathione). Description: physchem. Conditions: PBS buffer with 5 mM glutathione (GSH), pH 7.4.
Description: The AUC (area under the curve) values were determined via integration of HPLC or MS chromatograms and then corrected with the internal standard. The fragments’ AUC values were subjected to ordinary least-squares (OLS) linear regression, and to compute the important parameters (kinetic rate constant and half-life time), an Excel sheet was applied. The data are expressed as means of duplicate determinations. The kinetic rate constant for the degradation and corrected GSH reactivity were calculated as follows. The reaction half-life for pseudo-first-order reactions (t1/2) is ln 2/k, where k is the reaction rate. In the case of competing reactions (reaction with GSH and degradation), the apparent reaction rate is kapp = kdeg + kGSH. When half-lives are measured experimentally, t1/2(app) = ln 2/(kapp) = ln 2/(kdeg + kGSH). In our case, the corrected kdeg and kapp (regarding blank and GSH-containing samples, respectively) can be calculated by linear regression of the measured kinetic data points. The corrected kGSH is calculated as kapp – kdeg, and finally, the half-life is determined using the equation t1/2 = ln 2/k.
The half-life is how long it takes for the measured level to halve. The low end stands for rapid decline, the high end for slow decline. Take `Brc1c[nH]cn1` [J2]: the half-life at 250 μM was > 2880 min.
Still for that read-out and setting: next, `Clc1cn[nH]c1` [L1]: > 2880 min.
The same measure, in the same setting: with `Brc1ccn[nH]1` [K2] the figure was > 2880 min; with `Ic1ncc[nH]1` [H3], 9.6 min; with `Brc1cncs1` [Q2], > 2880 min.
In the case of `Clc1c[nH]cn1` [J1], the half-life at 250 μM was > 2880 min.
On the same count and under the same terms, with `Ic1cn[nH]c1` [L3] the figure was > 2880 min.
The same measure, in the same setting: next, `Ic1ccn[nH]1` [K3]: > 2880 min; `Brc1nccs1` [R2]: > 2880 min; `Clc1ncc[nH]1` [H1]: > 2880 min.
On the same count and under the same terms, next, `Brc1cn[nH]c1` [L2]: > 2880 min.
In the case of `Ic1ncco1` [N3], the half-life at 250 μM is 13.8 min.
On the same count and under the same terms, with `Brc1ncc[nH]1` [H2] the figure was > 2880 min; with `Ic1c[nH]cn1` [J3], > 2880 min.

The data set is the same for the next values; noted with them: buffer, pH 7.4.
For `Cn1cc[n+](C)c1C#N` [H4+], the half-life at 250 μM was > 2880 min.
Same read-out and setting: with `N#Cc1ccccn1` [A4] the figure was > 2880 min.
